Measurements: PubChem BioAssay AID206 (DTP/NCI, 2004)
Values joined by “and” are separate entries in the source; they are usually repeats but may differ in a detail not shown here. Identical values can stand only once. Results filed as inconclusive are left out.

Test system: nude mice, HT29 intrarenal xenograft, tumor weight T/C
Assay: NCI In Vivo Anticancer Drug Screen. Data for tumor model HT29;CX-1 Human Adenocarcinoma (MER+) (intrarenal inoculation) in NU/NU Swiss (nude) mice
Settings: endpoint: mean tumor weight change, higher = larger tumour
In short: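 T/C = treated-group value ÷ vehicle-group value, using tumor size or survival.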

[1] = dose: 10.0 mg/kg/injection, schedule: Q04DX004 (sc), vehicle: water
[2] = dose: 300.0 mg/kg/injection, schedule: Q04DX004 (sc), vehicle: Klucel (hydroxypropylcellulose) (HPC)
[3] = dose: 600.0 mg/kg/injection, schedule: Q04DX004 (sc), vehicle: Klucel (hydroxypropylcellulose) (HPC)
[4] = dose: 200.0 mg/kg/injection, schedule: Q01DX010 (sc), vehicle: saline
[5] = dose: 25.0 mg/kg/injection, schedule: Q01DX010 (sc), vehicle: saline
[6] = dose: 150.0 mg/kg/injection, schedule: Q04DX004 (sc), vehicle: Klucel (hydroxypropylcellulose) (HPC)

In the case of `COc1cccc2c1C(=O)c1c(O)c3c(c(O)c1C2=O)C[C@@](O)(C(C)=O)C[C@@H]3OC1CC(N(C)C)C(O)C(C)O1` (stereo partly specified), the T/C (dose: 2.5 mg/kg/injection, schedule: Q04DX004 (sc), vehicle: water) was 69 % of control, the T/C (dose: 4.0 mg/kg/injection, schedule: Q01DX010 (sc), vehicle: saline) was 54 % of control and the T/C (dose: 5.0 mg/kg/injection, schedule: Q04DX004 (sc), vehicle: water) was 45 % of control. The T/C [1] was 97 % of control.

In the case of `CNc1n[n+](-c2ccccc2)no1`, the T/C (dose: 37.5 mg/kg/injection, schedule: Q04DX004 (sc), vehicle: water) was 117 % of control and the T/C (dose: 75.0 mg/kg/injection, schedule: Q04DX004 (sc), vehicle: water) was 115 % of control.

In the case of `CCC(=O)O[C@H]1CC[C@H]2[C@@H]3CCC4=CC(=O)CC[C@]4(C)[C@H]3CC[C@]12C`, the T/C [2] was 59 % of control, the T/C [3] was 82 % of control and the T/C (dose: 1200.0 mg/kg/injection, schedule: Q04DX004 (sc), vehicle: Klucel (hydroxypropylcellulose) (HPC)) was 103 % of control. For the same compound, the T/C (dose: 2400.0 mg/kg/injection, schedule: Q04DX004 (sc), vehicle: Klucel (hydroxypropylcellulose) (HPC)) was 52 % of control.

With `CC(=O)NCCCCCCNC(C)=O` the T/C [4] was 88 % of control, the T/C (dose: 800.0 mg/kg/injection, schedule: Q01DX010 (sc), vehicle: saline) was 95 % of control and the T/C (dose: 1600.0 mg/kg/injection, schedule: Q01DX010 (sc), vehicle: saline) was 97 % of control and 117 % of control. For the same compound, the T/C (dose: 3200.0 mg/kg/injection, schedule: Q01DX010 (sc), vehicle: saline) was 110 % of control.

With `CC(C)=CCNc1ncnc2c1ncn2C1OC(CO)C(O)C1O` (stereo unspecified) the T/C (dose: 400.0 mg/kg/injection, schedule: Q04DX004 (sc), vehicle: suspension in saline) was 62 % of control.

`NCCc1ccc(O)c(O)c1` was tested, and the T/C [4] was 78 % of control.

In the case of `O=c1[nH]cc(F)c(=O)[nH]1`, the T/C (dose: 6.25 mg/kg/injection, schedule: Q01DX010 (sc), vehicle: saline) was 160 % of control, the T/C (dose: 12.5 mg/kg/injection, schedule: Q01DX010 (sc), vehicle: saline) was 101 % of control and the T/C (dose: 20.0 mg/kg/injection, schedule: Q01DX010 (sc), vehicle: saline) was 87 % of control and 107 % of control. The T/C [5] was 86 % of control, the T/C (dose: 40.0 mg/kg/injection, schedule: Q01DX010 (sc), vehicle: saline) was 46 % of control and the T/C (dose: 50.0 mg/kg/injection, schedule: Q04DX004 (ip), vehicle: saline) was 34 % of control. For the same compound, the T/C (dose: 75.0 mg/kg/injection, schedule: Q04DX004 (ip), vehicle: saline) was 23 % of control and the T/C (dose: 80.0 mg/kg/injection, schedule: Q01DX010 (sc), vehicle: saline) was 59 % of control.

For `COc1ccc2[nH]c3ccc4cc[n+](CCN5CCC(C6CCN(CC[n+]7ccc8ccc9[nH]c%10ccc(OC)cc%10c9c8c7)CC6)CC5)cc4c3c2c1`, the T/C [6] was 194 % of control, the T/C [2] was 189 % of control and the T/C [3] was 83 % of control.

For `O=C(O)CCCc1ccc(N(CCCl)CCCl)cc1`, the T/C (dose: 0.13 mg/kg/injection, schedule: Q04DX004 (ip), vehicle: Klucel (hydroxypropylcellulose) (HPC)) was 88 % of control, the T/C (dose: 0.2 mg/kg/injection, schedule: Q04DX004 (ip), vehicle: Klucel (hydroxypropylcellulose) (HPC)) was 109 % of control and the T/C (dose: 0.3 mg/kg/injection, schedule: Q04DX004 (ip), vehicle: Klucel (hydroxypropylcellulose) (HPC)) was 83 % of control.

`COc1cccc2c1C(=O)c1c(O)c3c(c(O)c1C2=O)C[C@@](O)(/C(C)=N/NC(=O)c1ccc(Cl)cc1)C[C@@H]3OC1CC(N)C(O)C(C)O1` (stereo partly specified) was tested, and the T/C [1] was 88 % of control, the T/C (dose: 20.0 mg/kg/injection, schedule: Q04DX004 (sc), vehicle: water) was 39 % of control and the T/C (dose: 80.0 mg/kg/injection, schedule: Q04DX004 (sc), vehicle: water) was 25 % of control.

`CCC1OCC(C(Cl)CCl)O1` (stereo unspecified) was tested, and the T/C (dose: 37.5 mg/kg/injection, schedule: Q01DX014 (sc), vehicle: Klucel (hydroxypropylcellulose) (HPC)) was 100 % of control, the T/C (dose: 37.5 mg/kg/injection, schedule: Q04DX014 (sc), vehicle: Klucel (hydroxypropylcellulose) (HPC)) was 58 % of control and the T/C (dose: 75.0 mg/kg/injection, schedule: Q01DX014 (sc), vehicle: Klucel (hydroxypropylcellulose) (HPC)) was 193 % of control. The T/C (dose: 75.0 mg/kg/injection, schedule: Q04DX014 (sc), vehicle: Klucel (hydroxypropylcellulose) (HPC)) was 30 % of control, the T/C (dose: 150.0 mg/kg/injection, schedule: Q01DX014 (sc), vehicle: Klucel (hydroxypropylcellulose) (HPC)) was 86 % of control and the T/C (dose: 150.0 mg/kg/injection, schedule: Q04DX014 (sc), vehicle: Klucel (hydroxypropylcellulose) (HPC)) was 1 % of control. The T/C (dose: 300.0 mg/kg/injection, schedule: Q01DX014 (sc), vehicle: Klucel (hydroxypropylcellulose) (HPC)) was 122 % of control, the T/C (dose: 300.0 mg/kg/injection, schedule: Q04DX004 (sc), vehicle: other) was 83 % of control and the T/C (dose: 300.0 mg/kg/injection, schedule: Q04DX014 (sc), vehicle: Klucel (hydroxypropylcellulose) (HPC)) was -30 % of control. For the same compound, the T/C (dose: 600.0 mg/kg/injection, schedule: Q01DX014 (sc), vehicle: Klucel (hydroxypropylcellulose) (HPC)) was 25 % of control, the T/C (dose: 600.0 mg/kg/injection, schedule: Q04DX004 (sc), vehicle: other) was 21 % of control and the T/C (dose: 600.0 mg/kg/injection, schedule: Q04DX014 (sc), vehicle: Klucel (hydroxypropylcellulose) (HPC)) was -99 % of control.

`Cc1ccc(S(=O)(=O)NC(=O)C2C(=O)CC3(CCCCC3)CC2=O)cc1` was tested, and the T/C [6] was 80 % of control, the T/C [2] was 84 % of control and the T/C [3] was 58 % of control.

`O=C1C=C2C(=CCOC2O)O1` (stereo unspecified) was tested, and the T/C (dose: 2.0 mg/kg/injection, schedule: Q04DX004 (sc), vehicle: Klucel (hydroxypropylcellulose) (HPC)) was 53 % of control and the T/C (dose: 4.0 mg/kg/injection, schedule: Q04DX004 (sc), vehicle: Klucel (hydroxypropylcellulose) (HPC)) was 87 % of control.

With `Nc1cc2[nH]cnc2c(=O)[nH]1` the T/C [5] was 62 % of control and the T/C (dose: 50.0 mg/kg/injection, schedule: Q01DX010 (sc), vehicle: saline) was 112 % of control.

With `COc1ccc2cc1Oc1ccc(cc1)C[C@H]1c3cc(c(OC)cc3CCN1C)Oc1c(OC)c(OC)cc3c1[C@H](C2)N(C)CC3` the T/C (dose: 100.0 mg/kg/injection, schedule: Q01DX010 (sc), vehicle: saline with Tween-80) was 102 % of control, the T/C (dose: 200.0 mg/kg/injection, schedule: Q01DX010 (sc), vehicle: saline with Tween-80) was 33 % of control and the T/C (dose: 400.0 mg/kg/injection, schedule: Q01DX010 (sc), vehicle: saline with Tween-80) was 28 % of control. The T/C (dose: 800.0 mg/kg/injection, schedule: Q01DX010 (sc), vehicle: saline with Tween-80) was 27 % of control.

For `CC(=O)CC(C)=O.CC(=O)CC(C)=O.O=N[O-].O=N[O-].[Co]`, the T/C (dose: 75.0 mg/kg/injection, schedule: Q04DX004 (sc), vehicle: saline with Tween-80) was 52 % of control, the T/C (dose: 150.0 mg/kg/injection, schedule: Q04DX004 (sc), vehicle: saline with Tween-80) was 92 % of control and the T/C (dose: 300.0 mg/kg/injection, schedule: Q04DX004 (sc), vehicle: saline with Tween-80) was 48 % of control.

With `Cc1nc(N)nc(N)c1-c1ccc(Cl)c(Cl)c1` the T/C (dose: 0.32 mg/kg/injection, schedule: Q01DX010 (sc), vehicle: saline) was 46 % of control, the T/C (dose: 0.63 mg/kg/injection, schedule: Q01DX010 (sc), vehicle: saline) was 75 % of control and the T/C (dose: 1.25 mg/kg/injection, schedule: Q01DX010 (sc), vehicle: saline) was 100 % of control. The T/C (dose: 2.5 mg/kg/injection, schedule: Q01DX010 (sc), vehicle: saline) was 68 % of control.

With `CC(=O)NC(C=O)OCC=O` (stereo unspecified) the T/C (dose: 100.0 mg/kg/injection, schedule: Q04DX004 (sc), vehicle: water) was 106 % of control and the T/C (dose: 200.0 mg/kg/injection, schedule: Q04DX004 (sc), vehicle: water) was 121 % of control.

`C=C(C)[C@]12CC(C)C34OC(/C=C\C=C\CCCCCCCCC)(O[C@@H]1[C@@H]3[C@@H]1O[C@]1(CO)[C@@H](O)[C@]1(O)C(=O)C(C)=C[C@@H]41)O2` (stereo partly specified) was tested, and the T/C (dose: 0.38 mg/kg/injection, schedule: Q04DX004 (sc), vehicle: distilled water + alcohol) was 73 % of control, the T/C (dose: 0.75 mg/kg/injection, schedule: Q04DX004 (sc), vehicle: distilled water + alcohol) was 40 % of control and the T/C (dose: 1.5 mg/kg/injection, schedule: Q04DX004 (sc), vehicle: distilled water + alcohol) was 63 % of control. The T/C (dose: 3.0 mg/kg/injection, schedule: Q04DX004 (sc), vehicle: distilled water + alcohol) was 37 % of control.

In the case of `CN(C)c1nc(N(C)C)nc(N(C)C)n1`, the T/C (dose: 15.0 mg/kg/injection, schedule: Q01DX010 (sc), vehicle: saline with Tween-80) was 90 % of control and the T/C (dose: 30.0 mg/kg/injection, schedule: Q01DX010 (sc), vehicle: saline with Tween-80) was 81 % of control and 101 % of control and 222 % of control.
